Laboratory results reported in patent publication US11524966B1 (Valo Early Discovery, Inc., priority 2017, dated 2022).

biological target: T1, USP25 (USP25-His6, Boston Biochem E-546) (Homo sapiens, UniProt Q9UHP3); experiment: Ubiquitin-Rhodamine 110 Assay for USP25 Activity, Example A-2; assay type: biochemical; conditions: Ubiquitin-Rhodamine 110 assay, Example A-2; read-out: USP25 A-2 IC50 range
T1 construct: His6; purchased Boston Biochem E-546
T1 sequence (Q9UHP3 1-1055): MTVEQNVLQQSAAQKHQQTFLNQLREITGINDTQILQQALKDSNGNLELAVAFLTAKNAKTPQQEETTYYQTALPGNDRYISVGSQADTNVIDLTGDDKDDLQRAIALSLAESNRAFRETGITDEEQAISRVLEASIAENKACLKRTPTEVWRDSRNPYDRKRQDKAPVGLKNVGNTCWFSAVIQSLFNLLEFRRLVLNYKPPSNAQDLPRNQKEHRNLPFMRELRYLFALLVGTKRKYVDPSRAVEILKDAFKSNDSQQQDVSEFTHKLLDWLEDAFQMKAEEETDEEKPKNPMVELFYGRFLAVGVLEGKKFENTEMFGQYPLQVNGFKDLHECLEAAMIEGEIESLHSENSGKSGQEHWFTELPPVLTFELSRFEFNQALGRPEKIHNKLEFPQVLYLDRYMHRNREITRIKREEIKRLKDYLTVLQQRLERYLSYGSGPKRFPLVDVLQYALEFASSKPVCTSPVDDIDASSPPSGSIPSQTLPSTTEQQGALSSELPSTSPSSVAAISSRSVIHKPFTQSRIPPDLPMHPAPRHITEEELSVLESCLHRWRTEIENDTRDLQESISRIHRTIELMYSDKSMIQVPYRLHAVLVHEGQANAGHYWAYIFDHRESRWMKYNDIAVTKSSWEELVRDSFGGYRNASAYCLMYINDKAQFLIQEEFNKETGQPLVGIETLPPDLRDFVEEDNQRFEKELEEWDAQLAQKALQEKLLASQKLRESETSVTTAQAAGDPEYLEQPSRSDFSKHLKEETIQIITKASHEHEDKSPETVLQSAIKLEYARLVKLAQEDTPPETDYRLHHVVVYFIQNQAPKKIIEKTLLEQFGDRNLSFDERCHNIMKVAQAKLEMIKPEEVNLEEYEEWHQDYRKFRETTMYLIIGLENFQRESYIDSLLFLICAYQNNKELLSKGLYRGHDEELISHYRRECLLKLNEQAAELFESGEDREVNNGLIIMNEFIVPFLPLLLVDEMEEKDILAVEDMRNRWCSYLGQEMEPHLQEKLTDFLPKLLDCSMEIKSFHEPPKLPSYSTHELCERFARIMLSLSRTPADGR
In short: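 Cleavage of ubiquitin-rhodamine 110 (25 nM, well below Km) by His-tagged USP25 at 75 pM is measured fluorimetrically after 45 min at room temperature and acid quench. Inhibitors are preincubated with enzyme for 30 minutes. IC50 values come from four-parameter logistic curve fitting.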

SMILES	IC50 [nM]
Cc1ccc2c(N)c(C(=O)N[C@H]3CCc4nc(N5CCNCC5)ccc4C3)sc2n1 (single isomer, unassigned) [Example 23-7]	200 to 2000
Cc1ccc2c(N)c(C(=O)N[C@@H]3CCc4nc(N5CCNCC5)ccc4C3)sc2n1 (single isomer, unassigned) [Example 23-8]	> 2000
Cc1ccc2c(N)c(C(=O)N[C@H]3CCc4nc(N5CCN[C@@H](C)C5)ccc4C3)sc2n1 (single isomer, unassigned) [Example 23-15]	200 to 2000
Cc1ccc2c(N)c(C(=O)N[C@H]3CCc4nc(N5CCN[C@H](C)C5)ccc4C3)sc2n1 (single isomer, unassigned) [Example 23-16]	200 to 2000
COC[C@@H]1CN(c2ccc3c(n2)CC[C@H](NC(=O)c2sc4nc(C)ccc4c2N)C3)C[C@@H]1N (single isomer, unassigned) [Example 24-1]	> 2000
COC[C@H]1CN(c2ccc3c(n2)CC[C@H](NC(=O)c2sc4nc(C)ccc4c2N)C3)C[C@H]1N (single isomer, unassigned) [Example 24-2]	200 to 2000
Cc1ccc2c(N)c(C(=O)N[C@H]3CCc4nc(N5CCNCC5)c(F)cc4C3)sc2n1 (single isomer, unassigned) [Example 30-1]	200 to 2000
Cc1ccc2c(N)c(C(=O)N[C@@H]3CCc4nc(N5CCNCC5)c(F)cc4C3)sc2n1 (single isomer, unassigned) [Example 30-2]	> 2000
Cc1ccc2c(N)c(C(=O)N[C@@H]3Cc4ccc(N5CCNCC5)nc4C4(CC4)C3)sc2n1 (single isomer, unassigned) [Example 31-3, 3-amino-6-methyl-N-[(6′S)-2-(piperazin-1-yl)-6′,7′-dihydro-5′H-spiro[cyclopropane-1,8′-quinoline]-6′-yl]thieno[2,3-b]pyridine-2-carboxamide]	> 2000
Cc1ccc2c(N)c(C(=O)N[C@H]3Cc4ccc(N5CCNCC5)nc4C4(CC4)C3)sc2n1 (single isomer, unassigned) [Example 31-4, 3-amino-6-methyl-N-[(6′R)-2′-(piperazin-1-yl)-6′,7′-dihydro-5′H-spiro[cyclopropane-1,8′-quinoline]-6′-yl]thieno[2,3-b]pyridine-2-carboxamide]	200 to 2000
Cc1ccc2c(N)c(C(=O)N[C@H]3COc4cc(N5C[C@@H]6CCNC[C@@H]65)ccc4C3)sc2n1 (single isomer, unassigned) [Example 33-3]	50 to 200
Cc1ccc2c(N)c(C(=O)N[C@H]3COc4cc(N5C[C@H]6CCNC[C@H]65)ccc4C3)sc2n1 (single isomer, unassigned) [Example 33-4]	200 to 2000
Cc1cnc2c(N)c(C(=O)N[C@H]3COc4cc(N5CC6CCC(C5)N6)c(F)cc4C3)sc2n1 (single isomer, unassigned) [Example 40]	50 to 200
Cc1cnc2c(N)c(C(=O)N[C@@H]3COc4cc(N5CC6CCC(C5)N6)c(F)cc4C3)sc2n1 (single isomer, unassigned) [Example 41]	> 2000
Cc1nc2sc(C(=O)N[C@H]3CCc4nc(N5CCNCC5)ccc4C3)c(N)c2s1 [Example 23-9]	> 2000
Cc1ccc2c(N)c(C(=O)N[C@H]3CCc4nc(N5CC6CC(C5)N6)ccc4C3)sc2n1 [Example 23-10, 3-amino-N-[(6S)-2-{3,6-diazabicyclo[3.1.1]heptan-3-yl}-5,6,7,8-tetrahydroquinolin-6-yl]-6-methylthieno[2,3-b]pyridine-2-carboxamide]	200 to 2000

SMILES	IC50 [nM]
Cc1cnc2c(N)c(C(=O)N[C@H]3CCc4nc(N5CC6CC(C5)N6)ccc4C3)sc2n1 [Example 23-11, 7-amino-N-[(6S)-2-{3,6-diazabicyclo[3.1.1]heptan-3-yl}-5,6,7,8-tetrahydroquinolin-6-yl]-3-methylthieno[2,3-b]pyrazine-6-carboxamide]	200 to 2000
Cc1ccc2c(N)c(C(=O)N[C@H]3CCc4nc(N5CC6CCC(C5)N6)ccc4C3)sc2n1 [Example 23-12, 3-amino-N-[(6S)-2-{3,8-diazabicyclo[3.2.1]octan-3-yl}-5,6,7,8-tetrahydroquinolin-6-yl]-6-methylthieno[2,3-b]pyridine-2-carboxamide]	200 to 2000
Cc1cnc2c(N)c(C(=O)N[C@H]3CCc4nc(N5CC6CCC(C5)N6)ccc4C3)sc2n1 [Example 23-13, 7-amino-N-{(6S)-2-{3,8-diazabicyclo[3.2.1]octan-3-yl}-5,6,7,8-tetrahydroquinolin-6-yl]-3-methylthieno[2,3-b]pyrazine-6-carboxamide]	200 to 2000
Cc1cc(C)c2c(N)c(C(=O)N[C@H]3CCc4nc(N5CCNCC5)ccc4C3)sc2n1 [Example 23-14, 3-amino-4,6-dimethyl-N-[(6S)-2-(piperazin-1-yl)-5,6,7,8-tetrahydroquinolin-6-yl]thieno[2,3-b]pyridine-2-carboxamide]	200 to 2000
Cc1ccc2c(N)c(C(=O)N[C@H]3CCc4nc(N5CCNCC5)cc(F)c4C3)sc2n1 [Example 23-17, 3-amino-N-[(6S)-4-fluoro-2-(piperazin-1-yl)-5,6,7,8-tetrahydroquinolin-6-yl]-6-methylthieno[2,3-b]pyridine-2-carboxamide]	200 to 2000
Cc1ccc2c(N)c(C(=O)N[C@H]3CCc4nc(N5CC6CCC(C5)N6)cc(F)c4C3)sc2n1 [Example 23-18, N-((6S)-2-(3,8-diazabicyclo[3.2.1]octan-3-yl)-4-fluoro-5,6,7,8-tetrahydroquinolin-6-yl)-3-amino-6-methylthieno[2,3-b]pyridine-2-carboxamide]	200 to 2000
Cc1ccc2c(N)c(C(=O)N[C@H]3CCc4nc(N5C[C@@H](N)[C@H](C(F)F)C5)ccc4C3)sc2n1 [Example 25, 3-Amino-N-[(6S)-2-[(3S,4R)-3-amino-4-(difluoromethyl)pyrrolidin-1-yl]-5,6,7,8-tetrahydroquinolin-6-yl]-6-methylthieno[2,3-b]pyridine-2-carboxamide]	200 to 2000
Cc1ccc2c(N)c(C(=O)N[C@H]3COc4cc(C5(C#N)CCS(=O)(=O)CC5)ccc4C3)sc2n1 [Example 34, 3-amino-N-[(3R)-7-(4-cyano-1,1-dioxo-1λ6-thian-4-yl)-3,4-dihydro-2H-1-benzopyran-3-yl]-6-methylthieno[2,3-b]pyridine-2-carboxamide]	1 to 50
Cc1ccc2c(N)c(C(=O)N[C@H]3COc4c(F)c(N5CCNCC5)c(F)c(F)c4C3)sc2n1 [Example 35, 3-amino-6-methyl-N-[(3R)-5,6,8-trifluoro-7-(piperazin-1-yl)-3,4-dihydro-2H-1-benzopyran-3-yl]thieno[2,3-b]pyridine-2-carboxamide]	50 to 200
CCc1cnc2sc(C(=O)N[C@H]3COc4cc(N5CCNCC5)ccc4C3)c(N)c2n1 [Example 36, (R)-7-amino-2-ethyl-N-(7-(piperazin-1-yl)chroman-3-yl)thieno[2,3-b]pyrazine-6-carboxamide]	200 to 2000
CCc1cnc2sc(C(=O)N[C@@H]3COc4cc(N5CCNCC5)ccc4C3)c(N)c2n1 [Example 37, (S)-7-amino-2-ethyl-N-(7-(piperazin-1-yl)chroman-3-yl)thieno[2,3-b]pyrazine-6-carboxamide]	> 2000
O=C(N[C@H]1COc2cc(N3CCNCC3)ccc2C1)c1cnc2c(ccn2C(F)F)c1 [Example 38, (R)-1-(difluoromethyl)-N-(7-(piperazin-1-yl)chroman-3-yl)-1H-pyrrolo[2,3-b]pyridine-5-carboxamide]	> 2000
O=C(N[C@@H]1COc2cc(N3CCNCC3)ccc2C1)c1cnc2c(ccn2C(F)F)c1 [Example 39, (S)-1-(difluoromethyl)-N-(7-(piperazin-1-yl)chroman-3-yl)-1H-pyrrolo[2,3-b]pyridine-5-carboxamide]	> 2000
Cc1ccc2c(N)c(C(=O)N[C@H]3COc4cc(N5C[C@H]6CNC[C@@H]6C5)ccc4C3)sc2n1 [Example 43, 3-amino-N-((R)-7-((3aR,6aR)-hexahydropyrrolo[3,4-c]pyrrol-2(1H)-yl)chroman-3-yl)-6-methylthieno[2,3-b]pyridine-2-carboxamide]	> 2000
Cc1ccc2c(N)c(C(=O)N[C@@H]3COc4cc(N5C[C@H]6CNC[C@@H]6C5)ccc4C3)sc2n1 [Example 44, 3-amino-N-((S)-7-((3aR,6aR)-hexahydropyrrolo[3,4-c]pyrrol-2(1H)-yl)chroman-3-yl)-6-methylthieno[2,3-b]pyridine-2-carboxamide]	> 2000
